Measured values taken from US8088422B2, “Purified pyrroloquinoline quinone fortified food” (Shanghai Medical Life Science Research Center, Ltd., Co., priority 2008, dated 2012).
Converted amounts (≈) assume the structure as drawn.

Legend:
[1] = system: Top10 E. coli; assay: OD600 measurement of bacterial growth in LB media with PQQ, Top10 E. coli; assay type: cell-based; conditions: 37 degree C
Description: (§1) In one experiment, Top 10 E. coli and Ampicillin resistant (AmpR) E. coli are selected as bacterial samples. These bacterial samples are cultured separately in LB media in a number of tubes with various purified PQQ concentrations. LB media is prepared as following: Ten gram Bacto-tryptone, 5 g yeast extract and 10 g NaCl are added to 800 ml distilled H2O. The pH of the solution is adjusted to 7.5 with NaOH, and the final volume is adjusted to 1 L with distilled H2O. The LB media is autoclaved and filtered to be sterilized. The PQQ concentration range is prepared between 0 to 100 mg/Liter of LB media in the number of the tubes. The bacterial samples are inoculated into the tubes to the amount of 1×10^5/tube, incubated in 37 degree C. on shaking bench for designated time according to the following experiment designs. It is known that Ampicillin has no effect to the growth of Ampicillin resistant E. coli but can inhibit other bacteria growth. Therefore, the data from the Ampicillin experiment are focused on AmpR E. coli growth. While in the case of Top10 E. coli, other types of bacteria may grow in the culture as well.
(§2) Table 1 and FIG. 1 show OD600 value of samples from Top10 E. coli and Ampicillin resistant E. coli cultured at 6, 8, and 9.5 hours. OD600 is a measurement of the optical density at 600 nm wavelength light of a liquid media. The optical density is related to the amount of particle scattering of light. In this case, a high optical density indicates a large number of bacteria in the cultural sample, and OD600 datas are used in this invention disclosure as indication of numbers of bacteria in the liquid media, which is a standard method to monitor microorganism growth. The OD600 of cultured microorganism in liquid media is measured by photometer, using blank media as blank reference. To convert OD600 to the number of microorganism such as E. coli in the culture media, the converting formula is 1 OD=3.8×10^8. OD600 is a well known technique of monitoring bacterial growth to those of skilled in the art and so is not discussed further here.

[2] = system: Ampicillin resistant (AmpR) E. coli; assay: OD600 measurement of bacterial growth in LB media with PQQ, Ampicillin resistant E. coli; assay type: cell-based; conditions: for OD600: AmpR, LB media, 37 degree C
Description: as §1, §2

[3] = system: bacteria in non-pasteurized cow milk; assay: OD600 of PQQ fortified non-pasteurized cow milk (FIG. 2); assay type: cell-based; conditions: PQQ 0, 0.1, 1, 10 mg/L, after 6 and 9 hour mixing at 37 degree C, then LB culture 24 hours
Description: In one embodiment of the present invention, the inhibition effect of purified PQQ to the growth of bacterial is utilized to preserve food products. […] The samples were prepared with purified PQQ concentration level of 0, 0.1, 1, and 10 mg/L. Next, the samples were shaken at 37 degree C. for 3, 6, and 9 hours, and then saved in a refrigerator under 4 degree C. On the next day, liquid culture media LB was added into the samples, followed by the samples cultured in shake flask for the next 24 hours and ready for OD600 test.
FIG. 2 presents the OD600 value as a function of purified PQQ concentration measured from the samples shake flask for 3, 6, and 9 hours.

[4] = Solubility of PQQ in water solution; assay type: physicochemical; conditions: 20 °C, aqueous buffer; 20-25 degree C., pH 7.0 water solution
[5] = Isoelectric point of PQQ; assay type: physicochemical
[6] = system: DNA; conditions: 10 μM PQQ (3.3 mg/L), dependent on presence of NADH and Cu (II); cited from earlier work

O=C(O)c1cc(C(=O)O)c2c(n1)C(=O)C(=O)c1cc(C(=O)O)[nH]c1-2 [PQQ, Pyrroloquinoline quinone] showed an OD600 ([1]; PQQ 0.1 mg/L, 6 Hours) of 0.303, an OD600 ([1]; PQQ 0.1 mg/L, 8 Hours) of 0.416 and an OD600 ([1]; PQQ 0.1 mg/L, 9.5 Hours) of 0.451. For the same compound, the OD600 ([1]; PQQ 1 mg/L, 6 Hours) was 0.293, the OD600 ([1]; PQQ 1 mg/L, 8 Hours) was 0.445 and the OD600 ([1]; PQQ 1 mg/L, 9.5 Hours) was 0.452. For the same compound, the OD600 ([1]; PQQ 25 mg/L, 6 Hours) was 0.251, the OD600 ([1]; PQQ 25 mg/L, 8 Hours) was 0.433 and the OD600 ([1]; PQQ 25 mg/L, 9.5 Hours) was 0.472. The OD600 ([1]; PQQ 50 mg/L, 6 Hours) was 0.208, the OD600 ([1]; PQQ 50 mg/L, 8 Hours) was 0.413 and the OD600 ([1]; PQQ 50 mg/L, 9.5 Hours) was 0.457. For the same compound, the OD600 ([1]; PQQ 75 mg/L, 6 Hours) was 0.165, the OD600 ([1]; PQQ 75 mg/L, 8 Hours) was 0.386 and the OD600 ([1]; PQQ 75 mg/L, 9.5 Hours) was 0.446. The OD600 ([1]; PQQ 100 mg/L, 6 Hours) was 0.163, the OD600 ([1]; PQQ 100 mg/L, 8 Hours) was 0.378 and the OD600 ([1]; PQQ 100 mg/L, 9.5 Hours) was 0.431. The “number of E. coli in AmpR sample (general trend, FIG. 1 and table 1)” value ([2]; PQQ 0 to 100 mg/Liter of LB media, 6, 8, 9.5 hours) was “decreases as the concentration of purified PQQ increases”, the OD600 ([2]; PQQ 0.1 mg/L, 6 Hours) was 0.143 and the OD600 ([2]; PQQ 0.1 mg/L, 8 Hours) was 0.331. The OD600 ([2]; PQQ 0.1 mg/L, 9.5 Hours) was 0.401, the OD600 ([2]; PQQ 1 mg/L, 6 Hours) was 0.145 and the OD600 ([2]; PQQ 1 mg/L, 8 Hours) was 0.335. The OD600 ([2]; PQQ 1 mg/L, 9.5 Hours) was 0.408, the OD600 ([2]; PQQ 25 mg/L, 6 Hours) was 0.087 and the OD600 ([2]; PQQ 25 mg/L, 8 Hours) was 0.268. The OD600 ([2]; PQQ 25 mg/L, 9.5 Hours) was 0.356, the OD600 ([2]; PQQ 50 mg/L, 6 Hours) was 0.052 and the OD600 ([2]; PQQ 50 mg/L, 8 Hours) was 0.169. It also gave an OD600 ([2]; PQQ 50 mg/L, 9.5 Hours) of 0.298, an OD600 ([2]; PQQ 75 mg/L, 6 Hours) of 0.04 and an OD600 ([2]; PQQ 75 mg/L, 8 Hours) of 0.122. It also gave an OD600 ([2]; PQQ 75 mg/L, 9.5 Hours) of 0.239, an OD600 ([2]; PQQ 100 mg/L, 6 Hours) of 0.03 and an OD600 ([2]; PQQ 100 mg/L, 8 Hours) of 0.088. For the same compound, the OD600 ([2]; PQQ 100 mg/L, 9.5 Hours) was 0.192, the “amount of bacteria (OD600, FIG. 2)” value [3] was “the amount of bacteria decreases as the purified PQQ concentration increases” and the solubility [4] was 1000 to 2000 µg/mL (≈ 3.03 to 6.06 mM). The isoelectric point [5] was 2.75 pH and the DNA cleavage [6] was “induce DNA cleavage at thymine and cytosine residue sites”.
